# Laboratory results taken from patent US6921770B2 (priority 2000, dated 2005).
# Tested on: rice blast fungi
# Assay type: in vivo, Pyricularia grisea
row,Compound,Inhibiting Ratio (%) (at 250 ppm)
1,"Cc1ccc(NC(=O)Cc2csc(=Nc3cc(Cl)cc(Cl)c3)n2C)cc1Cl.Cl [Compound 230, 2-(3,5-dichlorophenylimino)-3-methyl-4-[N-(3-chloro-4-methylphenyl)carbamoylmethyl]-4-thiazoline hydrochloride]",93
2,"Cc1ccc(NC(=O)Cc2csc(=Nc3ccc(OC(F)(F)F)cc3)n2C)cc1Cl.Cl [Compound 231, 2-(4-trifluoromethoxyphenylimino)-3-methyl-4-[N-(3-chloro-4-methylphenyl)carbamoylmethyl]-4-thiazoline hydrochloride]",93
3,"Cc1ccc(NC(=O)Cc2csc(=Nc3ccc(F)cc3F)n2C)cc1Cl.Cl [Compound 232, 2-(2.4-difluorophenylimino)-3-methyl-4-[N-(3-chloro-4-methylphenyl)carbamoylmethyl]-4-thiazoline hydrochloride]",92
4,"Cc1ccc(NC(=O)Cc2csc(=Nc3ccc(Cl)cc3)n2C)cc1Cl.Cl [Compound 233, 2-(4-chlorophenylimino)-3-methyl-4-[N-(3-chloro-4-methylphenyl)carbamoylmethyl]-4-thiazoline hydrochloride]",97
5,"Cc1ccc(NC(=O)Cc2csc(=Nc3ccccc3F)n2C)cc1Cl.Cl [Compound 235, 2-(2-fluorophenylimino)-3-methyl-4-[N-(3-chloro-4-methylphenyl)carbamoylmethyl]-4-thiazoline hydrochloride]",92
6,"Cc1ccc(NC(=O)Cc2csc(=Nc3cccc(F)c3)n2C)cc1Cl.Cl [Compound 236, 2-(3-fluorophenylimino)-3-methyl-4-[N-(3-chloro-4-methylphenyl)carbamoylmethyl]-1,3-thiazol-4-ine hydrochloride]",97
7,"Cc1ccc(NC(=O)Cc2csc(=Nc3ccc(F)c(Cl)c3)n2C)cc1Cl.Cl [Compound 238, 2-(3-chloro-4-fluorophenylimino)-3-methyl-4-[N-(3-chloro-4-methylphenyl)carbamoylmethyl]-1,3-thiazol-4-ine hydrochloride]",93
8,"COc1ccc(C)cc1N=c1scc(CC(=O)Nc2ccc(C)c(Cl)c2)n1C.Cl [Compound 239, 2-(2-methoxy-5-methylphenylimino)-3-methyl-4-[N-(3-chloro-4-methylphenyl)carbamoylmethyl]-1,3-thiazol-4-ine hydrochloride]",92
9,"Cc1ccc(NC(=O)Cc2csc(=Nc3ccc(Oc4ccccc4)cc3)n2C)cc1Cl.Cl [Compound 240, 3-methyl-2-(4-phenoxyphenylimino)-4-[N-(3-chloro-4-methylphenyl)carbamoylmethyl]-1,3-thiazol-4-ine hydrochloride]",88
10,"Cc1ccc(NC(=O)Cc2csc(=Nc3cc(OC(C)C)c(Cl)cc3F)n2C)cc1Cl.Cl [Compound 257, 2-(4chloro-2-fluoro-5-isopropoxyphenylimino)-3-methyl-4-[N-(3-chloro-4-methylphenyl)carbamoylmethyl]-1,3-thiazol-4-ine hydrochloride]",88
11,"Cl.O=C(Cc1csc(=Nc2ccc(F)cc2F)n1C1CC1)Nc1ccc(Br)cc1 [Compound 258, 2-(2,4-difluorophenylimino)-3-cyclopropyl-4-[N-(4-bromophenyl)carbamoylmethyl]-1,3-thiazol-4-ine hydrochloride]",91
12,"Cc1ccc(N=c2scc(CC(=O)Nc3ccc(Br)cc3)n2C2CC2)c(C)c1.Cl [Compound 263, 2-(2,4-dimethylphenylimino)-3-cyclopropyl-4-[N-(4-bromophenyl)carbamoylmethyl]-1,3-thiazol-4-ine hydrochloride]",96
13,"Br.CC(C)Oc1cccc(N=c2scc(CC(=O)Nc3ccc(Cl)cc3)n2C)c1 [Compound 303, 2-(3-isopropoxyphenylimino)-3-methyl-4-[N-(4-chlorophenyl)carbamoylmethyl]-1,3-thiazol-4-ine hydrobromide]",100
14,"Br.CCc1ccc(N=c2scc(CC(=O)Nc3ccc(Cl)cc3)n2C)cc1 [Compound 304, 2-(4-ethylphenylimino)-3-methyl-4-[N-(4-chlorophenyl)carbamoylmethyl]-1,3-thiazol-4-ine hydrobromide]",100
15,"Br.Cn1c(CC(=O)Nc2ccc(Cl)cc2)csc1=Nc1ccccc1 [Compound 305, 2-phenylimino-3-methyl-4-[N-(4-chlorophenyl)carbamoylmethyl]-1,3-thiazol-4-ine hydrobromide]",100
16,"Br.COc1ccc(NC(=O)Cc2csc(=Nc3ccccc3)n2C)cc1 [Compound 306, 2-phenylimino-3-methyl-4-[N-(4-methoxyphenyl)carbamoylmethyl]-1,3-thiazol-4-ine hydrobromide]",93
17,"Br.COc1ccc(N=c2scc(CC(=O)Nc3ccc(OC)cc3)n2C)cc1 [Compound 307, 2-(4-methoxyphenylimino)-3-methyl-4-[N-(4-methoxyphenyl)carbamoylmethyl]-1,3-thiazol-4-ine hydrobromide]",100
18,"Br.COc1ccc(N=c2scc(CC(=O)Nc3ccc(Cl)cc3)n2C)cc1 [Compound 308, 2-(4-methoxyphenylimino)-3-methyl-4-[N-(4-chlorophenyl)carbamoylmethyl]-1,3-thiazol-4-ine hydrobromide]",99

row,Compound,Inhibiting Ratio (%) (at 250 ppm)
1,"Br.COc1ccc(NC(=O)Cc2csc(=Nc3ccc(C)cc3)n2C)cc1 [Compound 309, 2-(4-methylphenylimino)-3-methyl-4-[N-(4-methoxyphenyl)carbamoylmethyl]-1,3-thiazol-4-ine hydrobromide]",100
2,"Br.Cc1ccccc1N=c1scc(CC(=O)Nc2ccc(Cl)cc2)n1C [Compound 310, 2-(2-methylphenylimino)-3-methyl-4-[N-(4-chlorophenyl)carbamoylmethyl]1,3-thiazol-4-ine hydrobromide]",100
3,"Br.COc1ccc(NC(=O)Cc2csc(=Nc3ccccc3OC)n2C)cc1 [Compound 311, 2-(2-methoxyphenylimino)-3-methyl-4-[N-(4-methoxyphenyl)carbamoylmethyl]-1,3-thiazol-4-ine hydrobromide]",95
4,"Br.COc1ccc(NC(=O)Cc2csc(=Nc3ccccc3C)n2C)cc1 [Compound 312, 2-(2-methylphenylimino)-3-methyl-4-[N-(4-methoxyphenyl)carbamoylmethyl]-1,3-thiazol-4-ine hydrobromide]",25
5,"Br.COc1ccc(NC(=O)Cc2csc(=Nc3ccc(OC(C)C)cc3)n2C)cc1 [Compound 313, 2-(4-isopropoxyphenylimino)-3-methyl-4-[N-(4-methoxyphenyl)carbamoylmethyl]-1,3-thiazol-4-ine hydrobromide]",100
6,"Br.CC(C)Oc1ccc(N=c2scc(CC(=O)Nc3ccc(Cl)cc3)n2C)cc1 [Compound 314, 2-(4-isopropoxyphenylimino)-3-methyl-4-[N-(4-chlorophenyl)carbamoylmethyl]-1,3-thiazol-4-ine hydrobromide]",100
7,"Br.COc1ccc(NC(=O)Cc2csc(=Nc3ccc(F)cc3)n2C)cc1 [Compound 315, 2-(4-fluorophenylimino)-3-methyl-4-[N-(4-methoxyphenyl)carbamoylmethyl]-1,3-thiazol-4-ine hydrobromide]",97
8,"Br.Cn1c(CC(=O)Nc2ccc(Cl)cc2)csc1=Nc1ccc(F)cc1 [Compound 316, 2-(4-fluorophenylimino)-3-methyl-4-[N-(4-chlorophenyl)carbamoylmethyl]-1,3-thiazol-4-ine hydrobromide]",100
9,"Br.Cn1c(CC(=O)Nc2ccc(Cl)cc2)csc1=Nc1ccc(Br)cc1 [Compound 317, 2-(4-bromophenylimino)-3-methyl-4-[N-(4-chlorophenyl)carbamoylmethyl]-1,3-thiazol-4-ine hydrobromide]",100
10,"Br.COc1ccc(NC(=O)Cc2csc(=Nc3ccc(Br)cc3)n2C)cc1 [Compound 318, 2-(4-bromophenylimino)-3-methyl-4-[N-(4-methoxyphenyl)carbamoylmethyl]-1,3-thiazol-4-ine hydrobromide]",100
11,"Br.Cn1c(CC(=O)Nc2ccc(Cl)cc2)csc1=Nc1ccc(Oc2ccccc2)cc1 [Compound 319, 2-(4-phenoxyphenylimino)-3-methyl-4-[N-(4-chlorophenyl)carbamoylmethyl]-1,3-thiazol-4-ine hydrobromide]",100
12,"Br.COc1ccc(NC(=O)Cc2csc(=Nc3ccc(Oc4ccccc4)cc3)n2C)cc1 [Compound 320, 2-(4-phenoxyphenylimino)-3-methyl-4-[N-(4-methoxyphenyl)carbamoylmethyl]-1,3-thiazol-4-ine hydrobromide]",100
13,"Br.Cc1cc(C)c(N=c2scc(CC(=O)Nc3ccccc3)n2C)c(C)c1 [Compound 321, 2-(2,4,6-trimethylphenylimino)-3-methyl-4-N-phenylcarbamoyl methyl-1,3-thiazol-4-ine hydrobromide]",97
14,"Br.Cc1ccccc1NC(=O)Cc1csc(=Nc2ccc(C#N)cc2)n1C [Compound 324, 2-(4-cyanophenylimino)-3-methyl-4-[N-(2-methylphenyl)carbamoylmethyl]1,3-thiazol-4-ine hydrobromide]",90
15,"Br.Cn1c(CC(=O)Nc2ccccc2)csc1=Nc1ccc(Cl)c(Cl)c1 [Compound 325, 2-(3,4-dichlorophenylimino)-3-methyl-4-N-phenylcarbamoylmethyl-1,3-thiazol-4-ine hydrobromide]",97
16,"Br.COc1ccc(NC(=O)Cc2csc(=Nc3ccc(C(C)(C)C)cc3)n2C)cc1 [Compound 326, 2-(4-butyl(t-)phenylimino)-3-methyl-4-[N-(4-methoxyphenyl)carbamoylmethyl]-1,3-thiazol-4-ine hydrobromide]",97
17,"Br.COc1ccccc1NC(=O)Cc1csc(=Nc2ccc(C(C)(C)C)cc2)n1C [Compound 327, 2-(4-butyl(t-)phenylimino)-3-methyl-4-[N-(2-methoxyphenyl)carbamoylmethyl]-1,3-thiazol-4-ine hydrobromide]",62
